Organism: Rattus norvegicus
Experiment: Open TG-GATES - Regimen: Single
Assay type: toxicity, organism-based, Sprague-Dawley
Parameters: regimen Single, gender Male, age 6 weeks
Details: in vivo, po, 1000 mg/kg, route gavage, dose level Middle; for APTT / Bas / Eos / Fbg / Hb / Ht / Lym / MCH / MCHC / MCV / Mono / Neu / PT / Plat / RBC / Ret / WBC: tissue Blood; for KIDNEY_L / KIDNEY_R / KIDNEY_TOTAL: tissue Kidney; for LIVER: tissue Liver; for A/G / ALP / ALT / AST / BUN / CRE / Ca / Cl / DBIL / GLC / IP / K / LDH / Na / PL / RALB / TBIL / TC / TG / TP / gamma-GTP: tissue Plasma

`CCOc1ccc(NC(=O)CC(C)O)cc1` (configuration not stated) [BUCETIN] was tested, and the TERMINAL_BW (3 h) was 211.2 g, the APTT (3 h) was 14.7 s and the Bas (3 h) was 0%. The Eos (3 h) was 1%, the Fbg (3 h) was 303 mg/dL and the Hb (3 h) was 13 g/dL. It also gave a Ht (3 h) of 38.6%, a Lym (3 h) of 78.4% and an MCH (3 h) of 20.6 pg. The MCHC (3 h) was 33.7%, the MCV (3 h) was 61.2 fL and the Mono (3 h) was 2%. For the same molecule, the Neu (3 h) was 18.2%, the PT (3 h) was 13.5 s and the Plat (3 h) was 123 x10_4/uL. For the same molecule, the RBC (3 h) was 630.8 x10_4/ul, the Ret (3 h) was 7.9% and the WBC (3 h) was 70.9 x10_2/uL. For the same molecule, the KIDNEY_L (3 h) was 0.9 g, the KIDNEY_R (3 h) was 1 g and the KIDNEY_TOTAL (3 h) was 1.9 g. For the same molecule, the LIVER (3 h) was 9.1 g, the A/G (3 h) was 0.9 and the ALP (3 h) was 1363.2 IU/L. For the same molecule, the ALT (3 h) was 33 IU/L, the AST (3 h) was 65.6 IU/L and the BUN (3 h) was 8.4 mg/dL. It also gave a CRE (3 h) of 0.1 mg/dL, a Ca (3 h) of 10.5 mg/dL and a Cl (3 h) of 104.6 meq/L. The DBIL (3 h) was 0.03 mg/dL, the GLC (3 h) was 182.2 mg/dL and the IP (3 h) was 9.1 mg/dL. The K (3 h) was 4.2 meq/L, the LDH (3 h) was 66.6 IU/L and the Na (3 h) was 141.4 meq/L. The PL (3 h) was 137.4 mg/dL, the RALB (3 h) was 2.5 g/dL and the TBIL (3 h) was 0.05 mg/dL. For the same molecule, the TC (3 h) was 73.6 mg/dL, the TG (3 h) was 51.6 mg/dL and the TP (3 h) was 5.2 g/dL. It also gave a gamma-GTP (3 h) of 1.4 IU/L, a TERMINAL_BW (6 h) of 208.9 g and an APTT (6 h) of 19.8 s. For the same molecule, the Bas (6 h) was 0%, the Eos (6 h) was 1% and the Fbg (6 h) was 317 mg/dL. It also gave a Hb (6 h) of 13.3 g/dL, a Ht (6 h) of 39.5% and a Lym (6 h) of 77%. The MCH (6 h) was 20.9 pg, the MCHC (6 h) was 33.6% and the MCV (6 h) was 62.1 fL. It also gave a Mono (6 h) of 2.6%, a Neu (6 h) of 19% and a PT (6 h) of 13.7 s. It also gave a Plat (6 h) of 118.7 x10_4/uL, an RBC (6 h) of 636.6 x10_4/ul and a Ret (6 h) of 7.8%. It also gave a WBC (6 h) of 61.8 x10_2/uL, a KIDNEY_L (6 h) of 0.9 g and a KIDNEY_R (6 h) of 0.9 g. For the same molecule, the KIDNEY_TOTAL (6 h) was 1.8 g, the LIVER (6 h) was 8.3 g and the A/G (6 h) was 0.9. The ALP (6 h) was 1231.6 IU/L, the ALT (6 h) was 29 IU/L and the AST (6 h) was 64.4 IU/L. The BUN (6 h) was 8.6 mg/dL, the CRE (6 h) was 0.2 mg/dL and the Ca (6 h) was 10.7 mg/dL. For the same molecule, the Cl (6 h) was 105.4 meq/L, the DBIL (6 h) was 0.036 mg/dL and the GLC (6 h) was 186.8 mg/dL. It also gave an IP (6 h) of 10.3 mg/dL, a K (6 h) of 4.2 meq/L and an LDH (6 h) of 57.8 IU/L. It also gave a Na (6 h) of 142 meq/L, a PL (6 h) of 139 mg/dL and an RALB (6 h) of 2.6 g/dL. The TBIL (6 h) was 0.062 mg/dL, the TC (6 h) was 82.2 mg/dL and the TG (6 h) was 28.4 mg/dL. It also gave a TP (6 h) of 5.5 g/dL, a gamma-GTP (6 h) of 1 IU/L and a TERMINAL_BW (9 h) of 204.6 g. It also gave an APTT (9 h) of 16.1 s, a Bas (9 h) of 0% and an Eos (9 h) of 0.6%. The Fbg (9 h) was 311.6 mg/dL, the Hb (9 h) was 13.6 g/dL and the Ht (9 h) was 40.3%. The Lym (9 h) was 78.8%, the MCH (9 h) was 21.1 pg and the MCHC (9 h) was 33.8%. The MCV (9 h) was 62.4 fL, the Mono (9 h) was 2.2% and the Neu (9 h) was 17.8%. The PT (9 h) was 14.2 s, the Plat (9 h) was 125.3 x10_4/uL and the RBC (9 h) was 646.4 x10_4/ul. For the same molecule, the Ret (9 h) was 8.3%, the WBC (9 h) was 48.8 x10_2/uL and the KIDNEY_L (9 h) was 0.9 g. The KIDNEY_R (9 h) was 0.9 g, the KIDNEY_TOTAL (9 h) was 1.8 g and the LIVER (9 h) was 8.2 g. The A/G (9 h) was 0.9, the ALP (9 h) was 1308.4 IU/L and the ALT (9 h) was 29.6 IU/L. It also gave an AST (9 h) of 62.6 IU/L, a BUN (9 h) of 7.6 mg/dL and a CRE (9 h) of 0.1 mg/dL. The Ca (9 h) was 10.6 mg/dL, the Cl (9 h) was 106 meq/L and the DBIL (9 h) was 0.04 mg/dL. The GLC (9 h) was 196.6 mg/dL, the IP (9 h) was 9.8 mg/dL and the K (9 h) was 4 meq/L. For the same molecule, the LDH (9 h) was 56.2 IU/L, the Na (9 h) was 142.4 meq/L and the PL (9 h) was 130.6 mg/dL. It also gave an RALB (9 h) of 2.6 g/dL, a TBIL (9 h) of 0.054 mg/dL and a TC (9 h) of 71.6 mg/dL. For the same molecule, the TG (9 h) was 26.2 mg/dL, the TP (9 h) was 5.5 g/dL and the gamma-GTP (9 h) was 1 IU/L. It also gave a TERMINAL_BW (24 h) of 208.1 g, an APTT (24 h) of 23.5 s and a Bas (24 h) of 0%. The Eos (24 h) was 1%, the Fbg (24 h) was 268.6 mg/dL and the Hb (24 h) was 13.4 g/dL. The Ht (24 h) was 40.5%, the Lym (24 h) was 77.6% and the MCH (24 h) was 20.7 pg. The MCHC (24 h) was 33.2%, the MCV (24 h) was 62.3 fL and the Mono (24 h) was 3%. It also gave a Neu (24 h) of 18%, a PT (24 h) of 15.1 s and a Plat (24 h) of 125 x10_4/uL. The RBC (24 h) was 650.2 x10_4/ul, the Ret (24 h) was 7.5% and the WBC (24 h) was 77.3 x10_2/uL. For the same molecule, the KIDNEY_L (24 h) was 1 g, the KIDNEY_R (24 h) was 1 g and the KIDNEY_TOTAL (24 h) was 1.9 g. It also gave an LIVER (24 h) of 8.9 g, an A/G (24 h) of 0.9 and an ALP (24 h) of 1549 IU/L. For the same molecule, the ALT (24 h) was 48 IU/L, the AST (24 h) was 92.2 IU/L and the BUN (24 h) was 16 mg/dL. It also gave a CRE (24 h) of 0.2 mg/dL, a Ca (24 h) of 10.8 mg/dL and a Cl (24 h) of 106.8 meq/L. The DBIL (24 h) was 0.03 mg/dL, the GLC (24 h) was 169.6 mg/dL and the IP (24 h) was 8.1 mg/dL. It also gave a K (24 h) of 4.2 meq/L, an LDH (24 h) of 93.8 IU/L and a Na (24 h) of 144.2 meq/L. The PL (24 h) was 154 mg/dL, the RALB (24 h) was 2.6 g/dL and the TBIL (24 h) was 0.07 mg/dL. The TC (24 h) was 86.4 mg/dL, the TG (24 h) was 66.2 mg/dL and the TP (24 h) was 5.6 g/dL. The gamma-GTP (24 h) was 1 IU/L.

— ChEMBL document CHEMBL3885861, “Open TG-GATES”
